Measurements taken from patent US11426375B2, “Substituted bisphenyl butanoic ester derivatives as NEP inhibitors” (NOVARTIS AG, priority 2019, dated 2022).
Like-named read-outs stand apart in the source and are kept apart here.

Legend:
[1] = parameters: species or system Sprague Dawley rats; conditions: rat, in vivo, po, 10 mg/kg; for LBQ657 concentration-time profile / conversion to LBQ657: male, Sprague-Dawley
Method: A parallel study design consisting of four groups with three animals per group was conducted to examine the pharmacokinetic properties of the compounds of the present disclosure.
The drugs were administered to each group are as follows: compound I-1 (Group 1), compound I-2 (Group 2), compound I-3 (Group 3), and AHU377 (sacubitril) (Group 4). Each animal received a single 10 mg/kg (5 ml/kg) oral gavage dose of the specified study drug. The animal weights ranged from […] at the beginning of the study. Compound I-1, compound I-2, compound I-3, and AHU377 were formulated in 0.5% methylcellulose (400 cp) and 0.1% Tween 80 (w,v) in water was used as the vehicle. Water bath sonication was applied to facilitate dispersing for all four study drugs. Blood samples for pharmacokinetics analysis were collected at t=0.25, 0.5, 1, 2, 4, 8, and 24 hours (±5%) post dose administration. Plasma was prepared by collecting whole blood samples into tubes containing EDTA and NaF (final concentrations: ˜1 mg/mL (K2EDTA) and ˜2 mg/mL (NaF)). These tubes were kept in an ice bath prior to centrifugation at approximately 2,000 rcf for 10 minutes at approximately 5° C. To each resultant plasma sample, 50% phosphoric acid (v/v) was added to achieve a final concentration of 1% (v,v).
(§1) [^13C4]-LBQ657 was added as an internal standard to the pharmacokinetic (PK) samples and calibration standards prior to analysis by LC-MS/MS. The LC-MS system consisted of an API6500+ mass spectrometer coupled to an Agilent 1290 HPLC system equipped with a CTC Pal autosampler. The mass spectrometer was operated in the positive ion mode with a TESI ion source.

[2] = parameters: species or system Cynomolgus Monkeys; conditions: cynomolgus monkey, in vivo, po, 10 mg/kg
Method: A cross-over study design consisting of two groups with two animals per group was conducted to examine the pharmacokinetic properties of compound I-1 of the present disclosure.
Compound I-1 and AHU377 were administered to each group as follows: compound I-1 on Day 0 followed by AHU377 on Day 2 (Group 1), AHU377 on Day 0 followed by compound I-1 on Day 2 (Group 2). Each animal received a single 10 mg/kg (5 ml/kg) oral gavage dose of the specified study drug on the specified day. The animals were 2.5 to 3.5 years of age and weighed between 3.1 and 4.3 kg at the beginning of the study. Both compounds were formulated in 0.5% methylcellulose (400 cp) and 0.1% Tween 80 (w,v) in water. Blood samples for pharmacokinetics analysis were collected at t=0, 0.25, 0.5, 1, 2, 4, 8, 24 and 48 hours post dose on Day 0 and Day 2. Plasma was prepared by collecting whole blood samples into tubes containing K2EDTA and NaF (final concentrations: ˜1 mg/mL (K2EDTA) and ˜2 mg/mL (NaF)). These tubes were kept in an ice bath prior to centrifugation at approximately 2,000 rcf for 10 minutes at approximately 5° C. To each resultant plasma sample (target volume 200 μL), 4 μL of 50% phosphoric acid (v/v) was added.
as §1, with “mode.” for “mode with a TESI ion source.”

[3] = type: physicochemical; conditions: for degradation in solution: 1 day
Method: It was stable at pH of 4.7 and pH of 6.8 up to 70° C. for 3 days.

[4] = Hygroscopicity, weight gain at 90% RH; type: physicochemical; conditions: after exposure to 90% RH
Excerpt: The weight gain of compound I-1 after exposure to 90% RH (relatively humidity) was 0.34%, while that of AHU377 under the same conditions was 3.4%. […] On the other hand, AHU377 is a wax-like solid, which needs to be properly processed before further pharmaceutical processing such as weighing, dispensing and filling.

[5] = Aqueous solubility by visual observation; type: physicochemical; conditions: water; based on visual observation
Method: The solubility value was more than about 500 mg/ml based on visual observation.

SMILES	tolerability [1]	tolerability [2]	degradation in solution ([3]; pH 2)	degradation in solution ([3]; pH 4.7)	solution stability under acidic conditions ([3]; pH 2)	weight gain (hygroscopicity) [4]	LBQ657 concentration-time profile [1]	conversion to LBQ657 [1]	solubility [5]
CCOC(=O)[C@H](C)C[C@@H](Cc1ccc(-c2ccccc2)cc1)NC(=O)CCC(=O)O [AHU377, 4-(((2S,4R)-1-([1,1′-biphenyl]-4-yl)-5-ethoxy-4-methyl-5-oxopentan-2-yl)amino)-4-oxobutanoic acid]	very well tolerated	well tolerated	21.49%	2.63%	unstable	3.4%			
CCOC(=O)[C@H](C)C[C@@H](Cc1ccc(-c2ccccc2)cc1)NC(=O)CCC(=O)N[C@@H](CCCCN)C(=O)O [Compound I-2, (4-(((2S,4R)-1-([1,1′-biphenyl]-4-yl)-5-ethoxy-4-methyl-5-oxopentan-2-yl)amino)-4-oxobutanoyl)-L-lysine]	very well tolerated						flattened relative to AHU377	nearly complete conversion to LBQ657	> 500 mg/mL
CCOC(=O)[C@H](C)C[C@@H](Cc1ccc(-c2ccccc2)cc1)NC(=O)CCC(=O)N[C@@H](CCCCN)C(=O)OC(C)(C)C [Compound I-3, Tert-butyl (4-(((2S,4R)-1-([1,1′-biphenyl]-4-yl)-5-ethoxy-4-methyl-5-oxopentan-2-yl)amino)-4-oxobutanoyl)-L-lysinate]	very well tolerated						flattened relative to AHU377	nearly complete conversion to LBQ657	
